Where two headings read alike, the source gives them in different places.
Tests used:
recombinant human MAO-A [1] = target: T1, recombinant human MAO-A (Homo sapiens, UniProt P21397); assay: MAO-A inhibition, IC50 determination with kynuramine as substrate (fluorescence of 4-hydroxyquinoline); assay type: biochemical; conditions: 50 µM kynuramine, mean ± SD of triplicate, NI = no inhibition observed at 100 µM
T1 construct: purchased Sigma-Aldrich; host or cells: insect cells (microsomes)
T1 sequence (P21397 1-527): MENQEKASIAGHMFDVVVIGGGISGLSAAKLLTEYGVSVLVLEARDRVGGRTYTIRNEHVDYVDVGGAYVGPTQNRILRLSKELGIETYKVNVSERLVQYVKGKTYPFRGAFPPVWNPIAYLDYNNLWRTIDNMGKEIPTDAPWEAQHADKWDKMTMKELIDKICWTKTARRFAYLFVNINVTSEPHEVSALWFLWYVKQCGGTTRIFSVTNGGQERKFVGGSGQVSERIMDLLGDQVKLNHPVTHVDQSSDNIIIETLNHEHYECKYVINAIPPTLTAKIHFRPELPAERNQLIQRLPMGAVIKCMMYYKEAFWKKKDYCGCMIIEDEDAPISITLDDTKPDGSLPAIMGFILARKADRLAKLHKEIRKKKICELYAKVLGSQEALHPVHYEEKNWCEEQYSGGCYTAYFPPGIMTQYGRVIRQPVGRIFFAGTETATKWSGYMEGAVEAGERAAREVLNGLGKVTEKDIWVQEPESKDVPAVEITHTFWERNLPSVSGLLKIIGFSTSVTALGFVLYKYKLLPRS
Description: (§1) The MAO inhibition properties of the 2,1-benzisoxazole derivatives were investigated using the commercially available recombinant human MAO-A and MAO-B enzymes with kynuramine serving as substrate. MAO oxidizes kynuramine to yield 4-hydroxyquinoline, which was measured by fluorescence spectrophotometry.
(§2) For the MAO inhibition studies, a Varian Cary Eclipse fluorescence spectrophotometer was employed. Microsomes from insect cells containing recombinant human MAO-A and MAO-B (5 mg protein/mL) and kynuramine dihydrobromide were obtained from Sigma-Aldrich.
(§3) IC50 values for the inhibition of MAO were measured as described previously. Microsomes from insect cells containing recombinant human MAO-A and MAO-B (5 mg protein/mL) served as enzyme sources (Sigma-Aldrich) while kynuramine was used as non-specific MAO substrate. The enzyme reactions (200 µL reactions prepared in 96-well microtiter plates) contained phosphate buffer (100 mM, pH 7.4), 50 µM kynuramine and the test inhibitors at concentrations of 0.003–100 µM. […] The reactions were initiated with addition of MAO-A (0.0075 mg protein/mL) or MAO-B (0.015 mg protein/mL) and after 20 min of incubation at 37 °C, the reactions were terminated by the addition of 80 µL NaOH (2 N). The concentration of 4-hydroxyquinoline, the product of kynuramine oxidation by MAO, was measured by fluorescence spectrophotometry (λex = 310 nm; λem = 400 nm). IC50 values were estimated from sigmoidal plots of enzyme catalytic rate versus the inhibitor concentration (log[I]) which were constructed with the Prism software package (GraphPad). IC50 values were estimated in triplicate determinations from these plots and are expressed as mean ± standard deviation (SD).

recombinant human MAO-B [2] = target: T2, recombinant human MAO-B (Homo sapiens, UniProt P27338); assay: MAO-B inhibition, IC50 determination with kynuramine as substrate (fluorescence of 4-hydroxyquinoline); assay type: biochemical; conditions: for SI (selectivity index): SI = IC50(MAO-A)/IC50(MAO-B); for IC50: recombinant human MAO-B, 50 µM kynuramine, mean ± SD of triplicate, NI = no inhibition observed at 100 µM
T2 construct: purchased Sigma-Aldrich; host or cells: insect cells (microsomes)
T2 sequence (P27338 1-520): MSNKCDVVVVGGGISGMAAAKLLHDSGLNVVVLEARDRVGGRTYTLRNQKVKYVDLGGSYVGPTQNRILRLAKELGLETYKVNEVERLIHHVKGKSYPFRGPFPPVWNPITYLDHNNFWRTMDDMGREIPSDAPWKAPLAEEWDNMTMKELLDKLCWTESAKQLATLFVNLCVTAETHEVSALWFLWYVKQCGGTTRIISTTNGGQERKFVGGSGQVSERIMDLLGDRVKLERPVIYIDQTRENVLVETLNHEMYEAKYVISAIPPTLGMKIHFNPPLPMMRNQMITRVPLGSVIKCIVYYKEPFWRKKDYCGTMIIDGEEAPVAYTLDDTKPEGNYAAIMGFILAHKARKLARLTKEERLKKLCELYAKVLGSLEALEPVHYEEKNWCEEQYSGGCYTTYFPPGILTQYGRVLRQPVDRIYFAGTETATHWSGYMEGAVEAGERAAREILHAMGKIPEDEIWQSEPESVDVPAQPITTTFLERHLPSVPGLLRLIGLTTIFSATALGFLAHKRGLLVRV
Description: as §1, §2
as §3, with “The” for “The reactions were initiated with addition of MAO-A (0.0075 mg protein/mL) or MAO-B (0.015 mg protein/mL) and after 20 min of incubation at 37 °C, the reactions were terminated by the addition of 80 µL NaOH (2 N). The”

recombinant human MAO-A [3] = target: T1, recombinant human MAO-A; assay: Lineweaver–Burk plots / mode of MAO-A inhibition and Ki; assay type: biochemical
Description: (§4) These two compounds represent potent MAO inhibitors among the study compounds. […] Each line of the Lineweaver–Burk plots was constructed with the kynuramine concentration ranging from 15 to 250 μM.
(§5) The insets are replots of the slopes of the Lineweaver–Burk plots versus inhibitor concentration. The Ki value equals the negative of the x-axis intercept when y = 0
(§6) IC50 values for the inhibition of MAO were measured as described previously. Microsomes from insect cells containing recombinant human MAO-A and MAO-B (5 mg protein/mL) served as enzyme sources (Sigma-Aldrich) while kynuramine was used as non-specific MAO substrate. The enzyme reactions (200 µL reactions prepared in 96-well microtiter plates) contained phosphate buffer (100 mM, pH 7.4), 50 µM kynuramine and the test inhibitors at concentrations of 0.003–100 µM. Stock solutions of the test inhibitors were dissolved in DMSO and added to the enzyme reactions to give a final DMSO concentration of 4% (v/v). The reactions were initiated with addition of MAO-A (0.0075 mg protein/mL) or MAO-B (0.015 mg protein/mL) and after 20 min of incubation at 37 °C, the reactions were terminated by the addition of 80 µL NaOH (2 N). The concentration of 4-hydroxyquinoline, the product of kynuramine oxidation by MAO, was measured by fluorescence spectrophotometry (λex = 310 nm; λem = 400 nm). IC50 values were estimated from sigmoidal plots of enzyme catalytic rate versus the inhibitor concentration (log[I]) which were constructed with the Prism software package (GraphPad). IC50 values were estimated in triplicate determinations from these plots and are expressed as mean ± standard deviation (SD).
(§7) For each line, the concentration of kynuramine ranged from 15–250 µM.

recombinant human MAO-B [4] = target: T2, recombinant human MAO-B; assay: Lineweaver–Burk plots / mode of MAO-B inhibition and Ki; assay type: biochemical
Description: as §4, §5, §6, §7

human MAO-B = target: human MAO-B; set-up: method as in PMID 21175212; conditions: competitive inhibitor; cited from earlier work
[5] = Lineweaver–Burk lines intersect on the y-axis

Compound	IC50 (recombinant human MAO-A [1])	melting point	SI (selectivity index) (recombinant human MAO-B [2])	IC50 (recombinant human MAO-B [2])	mode of MAO-A inhibition (recombinant human MAO-A [3]; [5])	Ki (recombinant human MAO-A [3]; global (shared) fitting of the inhibition data, read-out: Ki, MAO-A, global (shared) fitting to the Michaelis–Menten equation)	Ki (recombinant human MAO-A [3]; replot of slopes versus inhibitor concentration, Ki = −x when y = 0, kynuramine 15–250 µM, read-out: Ki, MAO-A, from replot of slopes of Lineweaver–Burk plots)	mode of MAO-B inhibition (recombinant human MAO-B [4]; [5])	Ki (recombinant human MAO-B [4]; global (shared) fitting of the inhibition data, read-out: Ki, MAO-B, global (shared) fitting to the Michaelis–Menten equation)	Ki (recombinant human MAO-B [4]; replot of slopes versus inhibitor concentration, Ki = −x when y = 0, kynuramine 15–250 µM, read-out: Ki, MAO-B, from replot of slopes of Lineweaver–Burk plots)	fold more potent MAO-B inhibition than homologues (recombinant human MAO-B [2]; versus p-tolyl (3c), phenyl (3j), p-Br-phenyl (3m), p-Cl-phenyl (3n) and p-OCH3-phenyl (3o) homologues)	Ki (human MAO-B)
c1ccc(-c2onc3ccc(C4OCCO4)cc23)cc1 [Compound 3l, 5-(1,3-Dioxolan-2-yl)-3-phenylbenzo[c]isoxazole]	5.35 ± 0.211 µM	137 to 138 °C	0.20	27.3 ± 2.16 µM	competitive	500 ± 24 nM	460 nM					
N#Cc1ccc(-c2onc3c(Cl)cc(Cl)cc23)cc1 [Compound 7a, 4-(5,7-Dichlorobenzo[c]isoxazol-3-yl)benzonitrile]	19 ± 1.2 µM	240 to 241 °C	1138	0.017 ± 0.0045 µM				competitive	10 ± 1.5 nM	6.2 nM		
N#Cc1ccc(-c2onc3ccc(Cl)cc23)cc1 [Compound 7b, 4-(5-Chlorobenzo[c]isoxazol-3-yl)benzonitrile]	61 ± 9.19 µM	236 to 237 °C	622	0.098 ± 0.0036 µM							at least 12 fold	
Cc1nc(-c2cc3noc(-c4ccc(C#N)cc4)c3cc2Cl)no1 [Compound 7c, 4-(5-Chloro-6-(5-methyl-1,2,4-oxadiazol-3-yl)benzo[c]isoxazol-3-yl)benzonitrile]	> 100 µM	257 to 258 °C		0.139 ± 0.044 µM								
NS(=O)(=O)Cc1noc2ccccc12 [Zonisamide, zonisamide]												3100 nM

Reference: article PMC11269473, “Monoamine oxidase inhibition properties of 2,1-benzisoxazole derivatives” (Molecular Diversity, 2023)
